Molecules are shown by their SMILES. Several values for one entry are separate records, joined by “and”; a condition that tells them apart may be missing. Equal values may be shown once.

Results on six compounds are retold here after ChEMBL document CHEMBL1129730, “Mechanistic studies on the inactivation of papain by epoxysuccinyl inhibitors” (J Med Chem, 1996).

For assay [1], the target named is T1, Papain (Carica papaya) (UniProt P00784).
T1 sequence (whole entry): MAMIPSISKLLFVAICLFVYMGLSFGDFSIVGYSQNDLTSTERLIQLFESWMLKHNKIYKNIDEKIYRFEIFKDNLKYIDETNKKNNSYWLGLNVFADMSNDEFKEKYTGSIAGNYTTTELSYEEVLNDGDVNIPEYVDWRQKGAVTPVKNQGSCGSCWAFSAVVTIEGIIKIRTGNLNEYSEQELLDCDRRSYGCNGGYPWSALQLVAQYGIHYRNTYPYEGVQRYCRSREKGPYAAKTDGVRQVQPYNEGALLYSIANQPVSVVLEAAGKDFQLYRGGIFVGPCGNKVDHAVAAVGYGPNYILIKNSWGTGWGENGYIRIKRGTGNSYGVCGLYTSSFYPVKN
Kind of assay: Kinetic constant First order rate of inactivation (K3) for the inhibition of papain conducted in 0.1 M phosphate, pH 6.8, at 30 degree C.

Assay [2] has as its target T2, Papain (Carica papaya, UniProt P00784).
T2 sequence (P00784 whole entry): T1 sequence (whole entry)
Kind of assay: Kinetic constant Apparent binding constant (Ki`) for the inhibition of papain conducted in 0.1 M phosphate, pH 6.8, at 30 degree C.

The target in assay [3] is T1, Papain (Carica papaya). Kind of assay: Inhibition of papain depend on Acid dissociation constant of the protein Papain.

Regarding `CC(C)CCNC(=O)[C@H](CC(C)C)NC(=O)[C@H]1O[C@@H]1C(N)=O`, the k3 in assay [1] came to 0.35 s⁻¹. Further, the Ki in assay [2] was 51 µM.
In assay [1], `CC(C)CCNC(=O)[C@H](CC(C)C)NC(=O)[C@H]1O[C@@H]1C(=O)O` [E-64C] came in with a k3 of 0.71 s⁻¹. Further, in assay [3], the pKa was 3.93 and 4.09. In addition, the Ki in assay [2] is 2.4 µM.
`CCOC(=O)[C@H]1O[C@@H]1C(=O)N[C@@H](CC(C)C)C(=O)NCCC(C)C` [ALOXISTATIN] registered a k3 in assay [1] of 0.059 s⁻¹. For the same compound, in assay [2], the Ki was determined as 52 µM.
The corresponding values for `CC(=O)[C@H]1O[C@@H]1C(=O)N[C@@H](CC(C)C)C(=O)NCCC(C)C` are 0.47 s⁻¹ and 170 µM.
The corresponding values for `CC(C)CCNC(=O)[C@H](CC(C)C)NC(=O)[C@H]1O[C@@H]1C(=O)NO` are 0.67 s⁻¹ and 6.6 µM.
Taken in the same sequence, the figures for `CC(C)CCNC(=O)[C@H](CC(C)C)NC(=O)[C@H]1O[C@@H]1CO` were 0.019 s⁻¹ and 4400 µM.
